Measured values reported in patent US5635458A, “Water-based drilling fluids for reduction of water adsorption and hydration of argillaceous rocks” (M-I Drilling Fluids, L.L.C., priority 1995, dated 1997).

Tests used:
[1] = Swelling test, Louisiana gumbo shale; settings: gumbo shale pellets
Text: The swelling inhibition effects of drilling fluids of this invention on water-sensitive shales have been evaluated by performing swelling tests using a Computer-Aided Swellmeter developed by M-I Drilling Fluids L.L.C. This device is described in, Lee, John, "Swellmeter Analysis," M-I® TECH-NEWS, November 1989. Pellets with 1 inch diameter, prepared by compressing pulverized water-sensitive shales under controlled loads, are placed in specially designed holders and allowed to be in direct contact with test fluids. The pellets are allowed to adsorb test fluids and swell for a period of time ranging from about 60 to 120 hours in the test fluids. Volume expansions of the pellets are recorded by using liner variable differential transformers. The volume expansions of the pellets and slopes of the swelling curves at the end of the test are used to evaluate the water adsorption and swelling inhibition of the test fluids.
The swelling tests were performed according to the test procedures given above. The argillaceous rock used for the tests was a "gumbo shale" obtained from offshore Louisiana. The gumbo shale was pulverized and pressed into 1 inch diameter pellets under 10,000 pounds of force for 5 minutes. The volume expansions of the pellets and the swelling rates calculated from swelling data obtained between 55 and 60 hours of the test are shown in Table 2. […]

[2] = cited from earlier work; for single-dose oral LD50: from Patty's Industrial Hygiene and Toxicology, 1978; for toxicity ranking / hazard in words: based on laboratory test data, direct ingestion
[3] = U.S. Pat. No. 4,830,765, cited from earlier work; for swelling of bentonite: 100% glycol fluid; for concentration needed to provide appreciable swelling inhibition on bentonite: in a fluid phase

Molecule	single-dose oral LD50 [2]	toxicity ranking / hazard in words [2]	concentration needed to provide appreciable swelling inhibition on bentonite [3] [% by weight]	further results
C[N+](C)(C)CCO.[Cl-] [Choline Chloride, choline chloride]	–	–	–	swelling inhibition in words [1]: more effective than the inorganic cationic material
OCCOCCO [Diethylene Glycol]	16-21 gm/KG	–	–	–
OCCO [Ethylene Glycol]	6-12 gm/KG	most toxic	–	–
CC(O)CO (stereo not drawn) [Propylene Glycol]	21-34 gm/KG	least toxic	≥ 50	swelling of bentonite [3]: completely prevented
OCCOCCOCCO [Triethylene Glycol]	16-22 gm/KG	–	–	–
CC(O)COC(C)COC(C)CO (stereo not drawn) [Tripropylene Glycol]	–	–	–	swelling of bentonite [3]: completely prevented
OCC(O)CO [glycerin]	–	–	≥ 50	–
OC[C@@H](O)[C@@H](O)[C@H](O)[C@@H](O)CO [sorbitol]	–	–	≥ 50	–
Butylene Glycol	23-30 gm/KG	least toxic	–	–
Dipropylene Glycol	~ 15 gm/KG	–	–	–
